This note sets out measurements from paper PMC12657321, “Pre-clinical evaluation of a potent and effective Pin1-degrading agent in pancreatic cancer” (Molecular Therapy Oncology, 2025).

Non-standard residues stand in square brackets, D forms with d. Residues, ends and D or L forms follow the SMILES beside them. *: point of attachment. Trp(6-Cl) = N[C@@H](Cc1c[nH]c2cc(Cl)ccc12)C(=O)O; Pip = O=C(O)[C@@H]1CCCCN1; ClAc = O=C(CCl)*

The nature of data set [1]: Stability in aqueous buffer (1x PBS). Type of data set: physicochemical. As to conditions: 1x phosphate buffered saline, 1 μg/mL, 37°C, up to 6 h, acetonitrile quench, LC-MS/MS. How it is done: (§1) A solution of a Pin1 inhibitor was spiked into blank plasma at 1 μg/mL in various solutions, including an aqueous buffer (1× phosphate-buffered saline; Fisher Scientific, Fair Lawn, NJ), human plasma (Innovative Research Inc., Novi, MI), wild-type mouse plasma (Innovative Research Inc., Novi, MI), plasma form esterase-deficient mice (City of Hope, Duarte, CA), and plasma from Black 6-Cg mice (City of Hope, Duarte, CA).
(§2) The spiked plasma samples were incubated at 37°C for up to 6 h. At each designated time point, a 20 μL aliquot of the incubation sample was removed and quenched in 100 μL of acetonitrile. At the end of the incubation, the quenched samples were vortexed and centrifuged for 10 min at 4°C and 20,000 × g. The resulting supernatant was reconstituted and analyzed by LC-MS/MS.
(§3) Table S2. Stability half-life of agents reported in Table 1 after incubation at 37 °C in various media. Acq represents aqueous buffer composed of 1x phosphate buffered saline (Fisher Scientific, Fair Lawn, NJ); human represents human plasma (Innovative Research Inc., Novi, MI); mouse wt represents wild type mouse plasma (Innovative Research Inc., Novi, MI); mouse ES1e represents plasma form esterase deficient mice (City of Hope, Duarte, CA); mouse B6-Cg represents plasma from black 6-Cg mice (City of Hope, Duarte, CA). See Figure 1 for the chemical structures of these compounds.
(§4) Compound Acq Human Mouse Mouse ES1e Mouse

A further data set can be described thus: Human plasma stability. Type of data set: in vitro ADME. As to conditions: 37°C, up to 6 h, acetonitrile quench, LC-MS/MS. The procedure:
as §1, §2, §3, §4

The nature of data set [2]: Wild-type mouse plasma stability. Type of data set: in vitro ADME. As to conditions: 37°C, up to 6 h, acetonitrile quench, LC-MS/MS, values given in min, read-out: Stability half-life, Mouse WT (converted). The procedure: as §1, §2, §3, §4
The nature of data set [3]: Stability in plasma from esterase-deficient (ES1e) mice. The class given is in vitro ADME. As to conditions: mouse, 37°C, up to 6 h, acetonitrile quench, LC-MS/MS. The procedure: as §1, §2, §3, §4
Data set [4] is described as follows: Stability in plasma from Black 6-Cg mice. The class given is in vitro ADME. As to conditions: Black 6-Cg (B6-Cg), mouse, 37°C, up to 6 h, acetonitrile quench, LC-MS/MS. How it is done:
as §1, §2, §3, §4

In general, half-life refers to the time in which the quantity being followed falls by half.

Consider `NC(=O)[C@H](Cc1c[nH]c2ccccc12)NC(=O)[C@@H]1CCCCN1C(=O)[C@H](Cc1c[nH]c2cc(Cl)ccc12)NC(=O)CCl` [158H9] (ClAc-[Trp(6-Cl)]-[Pip]-Trp-NH2), for which the “Stability half-life, Acq (aqueous buffer)” value in data set [1] is listed as over 5 h. Further, the half-life at 1 μg/mL is about 3 h in the data set “Human plasma stability”, about 0.5 h in data set [2], over 5 h in data set [3] and over 5 h in data set [4].
Consider `NC(=O)[C@H](Cc1c[nH]c2ccc(F)cc12)NC(=O)[C@@H]1CCCCN1C(=O)[C@@H]1Cc2c([nH]c3ccccc23)CN1C(=O)CCl` [164A10], for which, in data set [1], the “Stability half-life, Acq (aqueous buffer)” value is listed as over 5 h. Moreover, the half-life at 1 μg/mL was about 2.5 h in the data set “Human plasma stability”, under 0.167 h in data set [2], about 2.5 h in data set [3] and about 2.5 h in data set [4].
